Source: US9403823B2, “Protein kinase inhibitors” (ORIBASE PHARMA, priority 2012, dated 2016)
Like-named read-outs stand apart in the source and are kept apart here.

Key:
BRAF = target: T1, BRAF (Homo sapiens, UniProt P15056); assay: In vitro kinase assay (Z'-LYTE), BRAF; type: biochemical; conditions: read-out: % of inhibition of the kinase compared to the control
T1 construct: purchased Invitrogen
Description: (§1) 1) In Vitro Kinase Assays (Table 10 to Table 21)
(§2) The inhibitory activity of the compounds on several kinases including BRAF, EGFR (ErbB1), EGFR (ErbB1) T790M L858R, FGFR2, KDR (VEGFR2), PDGFRA (PDGFR alpha), SRC and other was evaluated by Invitrogen using the Z′-LYTE® technology. Briefly, the Z′-LYTE® biochemical assay employs a fluorescence-based, coupled-enzyme format and is based on the differential sensitivity of phosphorylated and non-phosphorylated peptides to proteolytic cleavage. The peptide substrate is labeled with two fluorophores—one at each end—that make up a FRET pair. A ratiometric method, which calculates the ratio (the Emission Ratio) of donor emission to acceptor emission after excitation of the donor fluorophore at 400 nm, is used to quantitate reaction progress.
(§3) The compounds are screened in 1% DMSO (final) in the well. For 10 point titrations, 3-fold serial dilutions are conducted from the starting concentration. All Peptide/Kinase Mixtures are diluted to a 2× working concentration in the appropriate Kinase Buffer. All ATP Solutions are diluted to a 4× working concentration in Kinase Buffer (50 mM HEPES pH 7.5, 0.01% BRIJ-35, 10 mM MgCl2, 1 mM EGTA). ATP Km apparent is previously determined using a Z′-LYTE® assay.
(§4) Each compound was incubated at a concentration of 100 nM (excepted to test the activity against ABL and ABL T315I for which the compounds were incubated at a concentration of 10 μM) and the tables 10 to 21 summarize the results obtained showing the inhibitory power of a compound.

EGFR (ErbB1) = target: T2, EGFR (ErbB1) (Homo sapiens, UniProt P00533); assay: In vitro kinase assay (Z'-LYTE), EGFR (ErbB1); type: biochemical; conditions: read-out: % of inhibition of the kinase compared to the control
T2 construct: purchased Invitrogen
Description: as §1, §2, §3, §4

FGFR2 = target: T3, FGFR2 (Homo sapiens, UniProt P21802); assay: In vitro kinase assay (Z'-LYTE), FGFR2; type: biochemical; conditions: read-out: % of inhibition of the kinase compared to the control
T3 construct: purchased Invitrogen
Description: as §1, §2, §3, §4

KDR (VEGFR2) = target: T4, KDR (VEGFR2) (Homo sapiens, UniProt P35968); assay: In vitro kinase assay (Z'-LYTE), KDR (VEGFR2); type: biochemical; conditions: read-out: % of inhibition of the kinase compared to the control
T4 construct: purchased Invitrogen
Description: as §1, §2, §3, §4

HUVEC = assay: In vitro cell proliferation assay (MTT), HUVEC; type: cell-based; conditions: Homo sapiens, read-out: EC50, anti-proliferative activity
Description: (§5) 2) In Vitro Cell Proliferation Assays (Table 22 to Table 35)
(§6) Cancer cell lines (5×10^3 cells per well) or HUVEC (1×10^4 cells per well) or HRMEC (1×10^4 cells per well) were distributed in 96-well plates and incubating in duplicate with escalating concentrations (10 nM to 3 μM) of compounds for 72 hr. Cell proliferation was measured using MTT (3[4,5-dimethylthiazol-2-yl]-2,5-diphenyltetrazolium bromide).

PDGFRA (PDGFR alpha) = target: T5, PDGFRA (PDGFR alpha) (Homo sapiens, UniProt P16234); assay: In vitro kinase assay (Z'-LYTE), PDGFRA; type: biochemical; conditions: read-out: % of inhibition of the kinase compared to the control
T5 construct: purchased Invitrogen
Description: as §1, §2, §3, §4

SRC = target: T6, SRC (Homo sapiens, UniProt P12931); assay: In vitro kinase assay (Z'-LYTE), SRC; type: biochemical; conditions: read-out: % of inhibition of the kinase compared to the control
T6 construct: purchased Invitrogen
Description: as §1, §2, §3, §4

HepG2 cell line = assay: In vitro cell proliferation assay (MTT), HepG2; type: cell-based; conditions: Homo sapiens, read-out: EC50, anti-proliferative activity
Description: as §5, §6

T4 sequence (P35968 20-1356): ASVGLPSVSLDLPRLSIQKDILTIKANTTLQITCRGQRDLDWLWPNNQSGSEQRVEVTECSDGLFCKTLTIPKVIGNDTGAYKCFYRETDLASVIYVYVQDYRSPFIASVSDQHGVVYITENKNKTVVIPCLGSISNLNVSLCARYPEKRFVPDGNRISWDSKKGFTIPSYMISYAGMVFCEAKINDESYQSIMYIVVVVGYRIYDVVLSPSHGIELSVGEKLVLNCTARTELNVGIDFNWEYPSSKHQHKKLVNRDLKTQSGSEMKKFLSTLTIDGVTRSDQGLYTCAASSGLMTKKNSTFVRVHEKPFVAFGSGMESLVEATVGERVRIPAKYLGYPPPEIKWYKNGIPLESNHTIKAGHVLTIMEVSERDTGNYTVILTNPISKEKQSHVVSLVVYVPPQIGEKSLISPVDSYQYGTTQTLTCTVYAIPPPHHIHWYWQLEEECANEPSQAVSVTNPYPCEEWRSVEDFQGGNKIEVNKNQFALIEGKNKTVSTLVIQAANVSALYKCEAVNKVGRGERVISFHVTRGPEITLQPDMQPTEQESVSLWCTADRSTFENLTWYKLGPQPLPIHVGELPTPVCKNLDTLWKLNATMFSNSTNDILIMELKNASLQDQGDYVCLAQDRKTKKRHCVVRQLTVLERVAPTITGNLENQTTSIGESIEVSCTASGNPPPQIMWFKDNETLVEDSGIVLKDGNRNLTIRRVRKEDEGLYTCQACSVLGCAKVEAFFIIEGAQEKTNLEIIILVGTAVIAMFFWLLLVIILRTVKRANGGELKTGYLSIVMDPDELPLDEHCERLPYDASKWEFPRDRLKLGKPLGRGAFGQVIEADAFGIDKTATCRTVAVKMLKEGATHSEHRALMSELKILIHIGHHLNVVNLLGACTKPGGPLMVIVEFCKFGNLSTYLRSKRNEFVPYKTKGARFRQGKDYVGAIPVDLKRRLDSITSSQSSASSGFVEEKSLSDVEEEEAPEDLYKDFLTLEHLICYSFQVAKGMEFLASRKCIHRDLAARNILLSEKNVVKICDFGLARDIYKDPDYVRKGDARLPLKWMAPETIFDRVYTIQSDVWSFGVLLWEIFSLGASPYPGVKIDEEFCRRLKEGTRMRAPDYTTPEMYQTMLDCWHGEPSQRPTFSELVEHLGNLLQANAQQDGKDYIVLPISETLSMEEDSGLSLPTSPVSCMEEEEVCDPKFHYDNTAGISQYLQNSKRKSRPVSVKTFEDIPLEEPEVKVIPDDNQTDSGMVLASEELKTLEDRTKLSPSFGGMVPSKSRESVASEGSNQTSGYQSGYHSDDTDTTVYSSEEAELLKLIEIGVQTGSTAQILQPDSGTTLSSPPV
T1 sequence (P15056 whole entry): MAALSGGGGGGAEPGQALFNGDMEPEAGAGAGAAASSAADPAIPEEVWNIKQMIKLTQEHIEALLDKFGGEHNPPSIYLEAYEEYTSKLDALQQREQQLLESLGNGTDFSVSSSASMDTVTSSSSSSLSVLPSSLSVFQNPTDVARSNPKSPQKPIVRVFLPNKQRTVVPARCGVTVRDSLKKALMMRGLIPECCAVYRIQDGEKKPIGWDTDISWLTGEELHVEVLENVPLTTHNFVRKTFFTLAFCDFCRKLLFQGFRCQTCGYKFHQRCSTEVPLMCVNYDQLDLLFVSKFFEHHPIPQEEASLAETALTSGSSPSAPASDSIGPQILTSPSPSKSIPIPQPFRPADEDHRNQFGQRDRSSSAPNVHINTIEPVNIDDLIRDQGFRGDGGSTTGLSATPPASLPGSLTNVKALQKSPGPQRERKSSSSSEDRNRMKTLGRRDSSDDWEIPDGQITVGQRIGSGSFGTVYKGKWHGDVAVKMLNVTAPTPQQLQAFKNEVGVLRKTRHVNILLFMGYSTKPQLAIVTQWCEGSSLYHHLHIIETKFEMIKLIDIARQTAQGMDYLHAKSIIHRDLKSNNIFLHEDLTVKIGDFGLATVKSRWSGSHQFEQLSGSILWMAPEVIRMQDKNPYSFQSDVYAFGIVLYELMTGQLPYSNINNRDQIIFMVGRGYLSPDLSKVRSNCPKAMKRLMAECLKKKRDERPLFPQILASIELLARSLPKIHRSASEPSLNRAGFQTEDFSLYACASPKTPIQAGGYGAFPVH
T2 sequence (P00533 25-1210): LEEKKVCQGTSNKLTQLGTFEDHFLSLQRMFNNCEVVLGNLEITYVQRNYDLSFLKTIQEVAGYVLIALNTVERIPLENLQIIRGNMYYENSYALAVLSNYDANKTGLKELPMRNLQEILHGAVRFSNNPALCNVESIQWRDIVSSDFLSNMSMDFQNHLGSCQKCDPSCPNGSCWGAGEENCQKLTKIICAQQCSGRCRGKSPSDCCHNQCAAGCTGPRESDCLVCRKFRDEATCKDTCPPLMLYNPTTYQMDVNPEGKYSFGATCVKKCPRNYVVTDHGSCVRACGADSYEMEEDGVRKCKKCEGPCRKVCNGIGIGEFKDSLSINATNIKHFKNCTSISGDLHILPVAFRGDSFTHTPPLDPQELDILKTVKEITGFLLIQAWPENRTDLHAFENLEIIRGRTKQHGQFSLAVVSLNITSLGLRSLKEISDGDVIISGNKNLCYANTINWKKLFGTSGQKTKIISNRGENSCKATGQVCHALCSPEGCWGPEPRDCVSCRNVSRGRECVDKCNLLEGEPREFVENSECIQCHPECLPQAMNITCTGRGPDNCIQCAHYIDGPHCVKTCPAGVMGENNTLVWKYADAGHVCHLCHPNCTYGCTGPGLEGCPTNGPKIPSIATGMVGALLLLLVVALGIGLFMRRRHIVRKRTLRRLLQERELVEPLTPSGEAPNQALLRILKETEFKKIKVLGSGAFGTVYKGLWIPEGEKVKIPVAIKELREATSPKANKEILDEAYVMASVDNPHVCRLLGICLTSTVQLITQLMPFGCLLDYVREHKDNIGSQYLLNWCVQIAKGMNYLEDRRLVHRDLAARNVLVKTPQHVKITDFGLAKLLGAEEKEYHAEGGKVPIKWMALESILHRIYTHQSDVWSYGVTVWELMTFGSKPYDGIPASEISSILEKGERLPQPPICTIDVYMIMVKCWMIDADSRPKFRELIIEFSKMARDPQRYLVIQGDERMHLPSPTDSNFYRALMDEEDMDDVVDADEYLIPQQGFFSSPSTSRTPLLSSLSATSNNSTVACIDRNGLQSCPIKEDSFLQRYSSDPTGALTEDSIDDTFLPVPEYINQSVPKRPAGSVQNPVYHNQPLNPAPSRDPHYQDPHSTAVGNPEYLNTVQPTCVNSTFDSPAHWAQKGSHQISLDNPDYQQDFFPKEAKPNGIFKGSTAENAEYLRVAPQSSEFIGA
T5 sequence (P16234 24-1089): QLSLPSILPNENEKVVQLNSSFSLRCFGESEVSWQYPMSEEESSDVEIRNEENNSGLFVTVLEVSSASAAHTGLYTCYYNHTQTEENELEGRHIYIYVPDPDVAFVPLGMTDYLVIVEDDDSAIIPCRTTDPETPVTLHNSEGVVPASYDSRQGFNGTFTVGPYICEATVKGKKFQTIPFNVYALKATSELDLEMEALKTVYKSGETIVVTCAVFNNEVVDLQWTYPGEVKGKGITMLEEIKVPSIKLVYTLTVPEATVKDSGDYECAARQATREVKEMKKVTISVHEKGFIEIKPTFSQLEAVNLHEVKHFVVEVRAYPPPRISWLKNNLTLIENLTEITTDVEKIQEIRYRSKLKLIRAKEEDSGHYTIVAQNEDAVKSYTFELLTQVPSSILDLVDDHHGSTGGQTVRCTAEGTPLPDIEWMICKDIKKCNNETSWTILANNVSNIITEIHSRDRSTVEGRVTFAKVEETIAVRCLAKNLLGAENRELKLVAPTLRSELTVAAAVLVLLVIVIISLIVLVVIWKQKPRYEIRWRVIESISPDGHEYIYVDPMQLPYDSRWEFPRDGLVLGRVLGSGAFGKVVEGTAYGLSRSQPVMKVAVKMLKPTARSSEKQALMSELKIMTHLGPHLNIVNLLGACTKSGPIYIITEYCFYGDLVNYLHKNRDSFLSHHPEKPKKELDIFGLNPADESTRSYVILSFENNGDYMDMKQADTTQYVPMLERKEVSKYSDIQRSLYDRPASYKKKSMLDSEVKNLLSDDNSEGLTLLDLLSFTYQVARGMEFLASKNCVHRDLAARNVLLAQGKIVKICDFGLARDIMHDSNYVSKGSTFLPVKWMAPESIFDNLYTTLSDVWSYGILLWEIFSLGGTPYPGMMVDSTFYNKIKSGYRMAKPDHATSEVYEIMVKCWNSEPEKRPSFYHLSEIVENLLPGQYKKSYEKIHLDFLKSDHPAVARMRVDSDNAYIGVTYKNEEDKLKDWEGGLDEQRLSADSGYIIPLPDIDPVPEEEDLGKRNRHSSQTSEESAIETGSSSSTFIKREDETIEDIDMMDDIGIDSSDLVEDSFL
T6 sequence (P12931 whole entry): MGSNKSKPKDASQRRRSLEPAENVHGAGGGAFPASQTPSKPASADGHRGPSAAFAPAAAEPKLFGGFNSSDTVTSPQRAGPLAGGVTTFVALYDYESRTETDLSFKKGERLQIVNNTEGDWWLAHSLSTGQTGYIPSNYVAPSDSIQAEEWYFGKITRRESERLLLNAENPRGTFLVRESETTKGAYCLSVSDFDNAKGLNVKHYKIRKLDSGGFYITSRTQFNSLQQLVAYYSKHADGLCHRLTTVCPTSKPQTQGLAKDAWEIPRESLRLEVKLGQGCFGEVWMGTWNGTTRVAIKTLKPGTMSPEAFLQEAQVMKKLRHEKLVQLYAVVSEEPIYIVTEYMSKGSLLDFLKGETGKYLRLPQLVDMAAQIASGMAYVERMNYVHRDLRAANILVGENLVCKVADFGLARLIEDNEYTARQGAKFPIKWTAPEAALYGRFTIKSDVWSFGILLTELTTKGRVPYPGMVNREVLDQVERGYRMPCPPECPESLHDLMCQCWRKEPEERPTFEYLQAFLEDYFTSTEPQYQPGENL

Row | Structure (SMILES) | inhibition at 0.1 µM (BRAF) [%] | inhibition at 0.1 µM (EGFR (ErbB1)) [%] | inhibition at 0.1 µM (FGFR2) [%] | inhibition at 0.1 µM (KDR (VEGFR2)) [%] | inhibition at 0.1 µM (PDGFRA (PDGFR alpha)) [%] | inhibition at 0.1 µM (SRC) [%] | EC50 (HepG2 cell line; HepG2, 72 h) [nM] | EC50 (HepG2 cell line; HepG2, 72 hr, MTT) [nM] | EC50 (HUVEC; 72 h) [nM] | EC50 (HUVEC; 72 hr, MTT) [nM]
1 | CC(=O)c1cc2cc(NCc3cc(NC(=O)c4ccnc(C(F)(F)F)c4)ccc3C)cnc2[nH]1 [OR0887, N-{3-[(2-Acetyl-1H-pyrrolo[2,3-b]pyridin-5-ylamino)-methyl]-4-methyl-phenyl}-2-trifluoromethyl-isonicotinamide] | ≥ 50 | < 50 | < 50 | ≥ 50 | – | – | – | – | 100 to 1000 | –
2 | CC(=O)c1cc2cc(NCc3cc(NS(=O)(=O)c4cccc(C(F)(F)F)c4)ccc3C)cnc2[nH]1 [OR0930, N-{3-[(2-Acetyl-1H-pyrrolo[2,3-b]pyridin-5-ylamino)-methyl]-4-methyl-phenyl}-3-trifluoromethyl-benzenesulfonamide] | < 50 | < 50 | < 50 | < 50 | < 50 | < 50 | – | ≥ 1000 | – | ≥ 1000
3 | CC(=O)c1cc2cc(NCc3cccc(NC(=O)c4ccc(CN5CC[C@H](N(C)C)C5)c(C(F)(F)F)c4)c3)cnc2[nH]1 [OR0927, N-{3-[(2-Acetyl-1H-pyrrolo[2,3-b]pyridin-5-ylamino)-methyl]-phenyl}-4-((S)-3-dimethylamino-pyrrolidin-1-ylmethyl)-3-trifluoromethyl-benzamide] | < 50 | ≥ 50 | ≥ 50 | ≥ 50 | – | – | 100 to 1000 | – | 100 to 1000 | –
4 | Cc1ccc(NC(=O)c2ccc(CN3CCN(C)CC3)c(C(F)(F)F)c2)cc1C(=O)Nc1cnc2[nH]c(C(=O)O)cc2c1 [OR0810, 5-{2-Methyl-5-[4-(4-methyl-piperazin-1-ylmethyl)-3-trifluoromethyl-benzoylamino]-benzoylamino}-1H-pyrrolo[2,3-b]pyridine-2-carboxylic acid] | < 50 | ≥ 50 | ≥ 50 | ≥ 50 | – | – | – | – | – | –
5 | CC(=O)c1cc2cc(NCc3cc(NC(=O)c4cccc(C(F)(F)F)c4)ccc3C)cnc2[nH]1 [OR0893, N-{3-[(2-Acetyl-1H-pyrrolo[2,3-b]pyridin-5-ylamino)-methyl]-4-methyl-phenyl}-3-trifluoromethyl-benzamide] | ≥ 50 | ≥ 50 | < 50 | ≥ 50 | – | – | ≤ 100 | – | 100 to 1000 | –
6 | CC(=O)c1cc2cc(NCc3cccc(C(=O)Nc4cccnc4)c3)cnc2[nH]1 [OR0917, 3-[(2-Acetyl-1H-pyrrolo[2,3-b]pyridin-5-ylamino)-methyl]-N-pyridin-3-yl-benzamide] | < 50 | ≥ 50 | ≥ 50 | ≥ 50 | – | – | – | ≥ 1000 | – | ≥ 1000
7 | CC(=O)c1cc2cc(NCc3ccc(F)c(NC(=O)c4cncc(C(F)(F)F)c4)c3)cnc2[nH]1 [OR0894, N-{5-[(2-Acetyl-1H-pyrrolo[2,3-b]pyridin-5-ylamino)-methyl]-2-fluoro-phenyl}-5-trifluoromethyl-nicotinamide] | ≥ 50 | < 50 | ≥ 50 | ≥ 50 | – | – | – | – | – | ≥ 1000
8 | CC(=O)c1cc2cc(NCc3cc(NC(=O)c4ccc(C(F)(F)F)nc4)ccc3C)cnc2[nH]1 [OR0886, N-{3-[(2-Acetyl-1H-pyrrolo[2,3-b]pyridin-5-ylamino)-methyl]-4-methyl-phenyl}-6-trifluoromethyl-nicotinamide] | < 50 | – | < 50 | < 50 | ≥ 50 | < 50 | – | ≥ 1000 | 100 to 1000 | –
9 | Cc1ccc(NC(=O)c2ccc(CN3CC[C@H](N(C)C)C3)c(C(F)(F)F)c2)cc1CNc1cnc2[nH]c(C(=O)O)cc2c1 [OR0814, 5-{5-[4-((S)-3-Dimethylamino-pyrrolidin-1-ylmethyl)-3-trifluoromethyl-benzoylamino]-2-methyl-benzylamino}-1H-pyrrolo[2,3-b]pyridine-2-carboxylic acid] | < 50 | ≥ 50 | ≥ 50 | ≥ 50 | – | – | – | – | – | –

Further lines, with some results ahead:

Row | inhibition at 0.1 µM (BRAF) [%] | inhibition at 0.1 µM (EGFR (ErbB1)) [%] | inhibition at 0.1 µM (FGFR2) [%] | inhibition at 0.1 µM (KDR (VEGFR2)) [%] | inhibition at 0.1 µM (PDGFRA (PDGFR alpha)) [%] | inhibition at 0.1 µM (SRC) [%] | EC50 (HepG2 cell line; HepG2, 72 h) [nM] | EC50 (HepG2 cell line; HepG2, 72 hr, MTT) [nM] | Structure (SMILES) | EC50 (HUVEC; 72 h) [nM] | EC50 (HUVEC; 72 hr, MTT) [nM]
10 | < 50 | < 50 | < 50 | < 50 | < 50 | < 50 | ≤ 100 | – | CC(=O)c1cc2cc(NC(=O)c3cc(NC(=O)Nc4cccc(C(F)(F)F)c4)ccc3C)cnc2[nH]1 [OR0951, N-(2-Acetyl-1H-pyrrolo[2,3-b]pyridin-5-yl)-2-methyl-5-[3-(3-trifluoromethyl-phenyl)-ureido]-benzamide] | – | ≥ 1000
11 | ≥ 50 | < 50 | < 50 | < 50 | ≥ 50 | < 50 | – | ≥ 1000 | CC(=O)c1cc2cc(NCc3cc(NC(=O)c4ccc5[nH]nnc5c4)ccc3C)cnc2[nH]1 [OR0979, 1H-Benzotriazole-5-carboxylic acid {3-[(2-acetyl-1H-pyrrolo[2,3-b]pyridin-5-ylamino)-methyl]-4-methyl-phenyl}-amide] | – | ≥ 1000
12 | ≥ 50 | < 50 | < 50 | < 50 | ≥ 50 | < 50 | – | ≥ 1000 | CC(=O)c1cc2cc(NCc3cc(NC(=O)c4cc[nH]c4)ccc3C)cnc2[nH]1 [OR0986, 1H-Pyrrole-3-carboxylic acid {3-[(2-acetyl-1H-pyrrolo[2,3-b]pyridin-5-ylamino)-methyl]-4-methyl-phenyl}-amide] | – | ≥ 1000
13 | ≥ 50 | < 50 | < 50 | ≥ 50 | – | – | 100 to 1000 | – | CC(=O)c1cc2cc(NCc3cc(NC(=O)c4cncc(C(F)(F)F)c4)ccc3F)cnc2[nH]1 [OR0970, N-{5-[(2-Acetyl-1H-pyrrolo[2,3-b]pyridin-5-ylamino)-methyl]-4-fluoro-phenyl}-5-trifluoromethyl-nicotinamide] | – | ≥ 1000
14 | ≥ 50 | ≥ 50 | < 50 | ≥ 50 | – | – | 100 to 1000 | – | CC(=O)c1cc2cc(NCc3cc(NC(=O)c4ccc(CN5CCC(N(C)C)C5)c(F)c4)ccc3C)cnc2[nH]1 (stereo not shown) [OR0973, N-{3-[(2-Acetyl-1H-pyrrolo[2,3-b]pyridin-5-ylamino)-methyl]-4-methyl-phenyl}-4-(3-dimethylamino-pyrrolidin-1-ylmethyl)-3-fluoro-benzamide] | – | ≥ 1000
15 | < 50 | ≥ 50 | ≥ 50 | ≥ 50 | – | – | 100 to 1000 | – | CC(=O)c1cc2cc(NCc3cc(NC(=O)c4ccc(CN5CC[C@H](N(C)C)C5)c(C(F)(F)F)c4)ccc3F)cnc2[nH]1 [OR0971, N-{3-[(2-Acetyl-1H-pyrrolo[2,3-b]pyridin-5-ylamino)-methyl]-4-fluoro-phenyl}-4-((S)-3-dimethylamino-pyrrolidin-1-ylmethyl)-3-trifluoromethyl-benzamide] | – | ≥ 1000
16 | < 50 | < 50 | < 50 | < 50 | < 50 | < 50 | – | ≥ 1000 | CC(=O)c1cc2cc(NC(=O)c3cccc(CNC(=O)c4ccc(CN5CCN(C)CC5)c(C(F)(F)F)c4)c3)cnc2[nH]1 [OR0984, N-[3-(2-Acetyl-1H-pyrrolo[2,3-b]pyridin-5-ylcarbamoyl)-benzyl]-4-(4-methyl-piperazin-1-ylmethyl)-3-trifluoromethyl-benzamide] | – | –
